Laboratory results from ChEMBL document CHEMBL1152339, “Use of the in vivo hollow fiber assay in natural products anticancer drug discovery” (J Nat Prod, 2009).

Experiments:
Format in all cases: functional
MCF7 [1] = experiment: Growth inhibition of human MCF7 cells xenografted in NCr nu/nu mouse at 25 to 100 mg/kg, sc once daily administered from day 3 to 6 after implantation measured on day 7 by MTT-based hollow-fiber test; details: dose mg/kg 3-6; route subcutaneous
KB [2] = experiment: Growth inhibition of human KB cells xenografted in NCr nu/nu mouse at 25 to 100 mg/kg, sc once daily administered from day 3 to 6 after implantation measured on day 7 by MTT-based hollow-fiber test; details: route subcutaneous
SW626 [3] = experiment: Growth inhibition of human SW626 cells xenografted in NCr nu/nu mouse at 25 to 100 mg/kg, sc once daily administered from day 3 to 6 after implantation measured on day 7 by MTT-based hollow-fiber test; details: dose mg/kg 3-6; route subcutaneous
SW626 [4] = experiment: Growth inhibition of human SW626 cells xenografted in NCr nu/nu mouse at 25 to 100 mg/kg, ip once daily administered from day 3 to 6 after implantation measured on day 7 by MTT-based hollow-fiber test; details: dose mg/kg 3-6; route intraperitoneal
MCF7 [5] = experiment: Growth inhibition of human MCF7 cells xenografted in NCr nu/nu mouse at 25 to 100 mg/kg, ip once daily administered from day 3 to 6 after implantation measured on day 7 by MTT-based hollow-fiber test; details: dose mg/kg 3-6; route intraperitoneal
LNCaP [6] = experiment: Growth inhibition of human LNCAP cells xenografted in NCr nu/nu mouse at 25 to 100 mg/kg, sc once daily administered from day 3 to 6 after implantation measured on day 7 by MTT-based hollow-fiber test; details: route subcutaneous
LNCaP [7] = experiment: Growth inhibition of human LNCAP cells xenografted in NCr nu/nu mouse at 25 to 100 mg/kg, ip once daily administered from day 3 to 6 after implantation measured on day 7 by MTT-based hollow-fiber test; details: route intraperitoneal
SK-MEL-2 [8] = experiment: Growth inhibition of human SK-MEL-2 cells xenografted in NCr nu/nu mouse at 25 to 100 mg/kg, sc once daily administered from day 3 to 6 after implantation measured on day 7 by MTT-based hollow-fiber test; details: dose mg/kg 3-6; route subcutaneous
LNCaP [9] = experiment: Growth inhibition of human LNCAP cells xenografted in ip dosed NCr nu/nu mouse administered once daily from day 3 to 6 after implantation measured on day 7 by MTT-based hollow-fiber test
SK-MEL-2 [10] = experiment: Growth inhibition of human SK-MEL-2 cells xenografted in ip dosed NCr nu/nu mouse administered once daily from day 3 to 6 after implantation measured on day 7 by MTT-based hollow-fiber test
KB [11] = experiment: Growth inhibition of human KB cells xenografted in NCr nu/nu mouse at 25 to 100 mg/kg, ip once daily administered from day 3 to 6 after implantation measured on day 7 by MTT-based hollow-fiber test; details: route intraperitoneal
SW626 [12] = experiment: Growth inhibition of human SW626 cells xenografted in ip dosed NCr nu/nu mouse administered once daily from day 3 to 6 after implantation measured on day 7 by MTT-based hollow-fiber test
MCF7 [13] = experiment: Growth inhibition of human MCF7 cells xenografted in ip dosed NCr nu/nu mouse administered once daily from day 3 to 6 after implantation measured on day 7 by MTT-based hollow-fiber test
SK-MEL-2 [14] = experiment: Growth inhibition of human SK-MEL-2 cells xenografted in NCr nu/nu mouse at 25 to 100 mg/kg, ip once daily administered from day 3 to 6 after implantation measured on day 7 by MTT-based hollow-fiber test; details: dose mg/kg 3-6; route intraperitoneal
KB [15] = experiment: Growth inhibition of human KB cells xenografted in NCr nu/nu mouse at 6.25 to 25 mg/kg, ip once daily administered from day 3 to 6 after implantation measured on day 7 by MTT-based hollow-fiber test; details: route intraperitoneal
KB [16] = experiment: Growth inhibition of human KB cells xenografted in NCr nu/nu mouse at 6.25 to 25 mg/kg, sc once daily administered from day 3 to 6 after implantation measured on day 7 by MTT-based hollow-fiber test; details: route subcutaneous
Col2 [17] = experiment: Growth inhibition of human Col2 cells xenografted in NCr nu/nu mouse at 6.25 to 25 mg/kg, sc once daily administered from day 3 to 6 after implantation measured on day 7 by MTT-based hollow-fiber test; details: route subcutaneous
Col2 [18] = experiment: Growth inhibition of human Col2 cells xenografted in NCr nu/nu mouse at 6.25 to 25 mg/kg, ip once daily administered from day 3 to 6 after implantation measured on day 7 by MTT-based hollow-fiber test; details: route intraperitoneal
Col2 [19] = experiment: Growth inhibition of human Col2 cells xenografted in ip dosed NCr nu/nu mouse administered once daily from day 3 to 6 after implantation measured on day 7 by MTT-based hollow-fiber test
LNCaP [20] = experiment: Growth inhibition of human LNCAP cells xenografted in NCr nu/nu mouse at 6.25 to 25 mg/kg, sc once daily administered from day 3 to 6 after implantation measured on day 7 by MTT-based hollow-fiber test; details: route subcutaneous
LNCaP [21] = experiment: Growth inhibition of human LNCAP cells xenografted in NCr nu/nu mouse at 6.25 to 25 mg/kg, ip once daily administered from day 3 to 6 after implantation measured on day 7 by MTT-based hollow-fiber test; details: route intraperitoneal
KB [22] = experiment: Growth inhibition of human KB cells xenografted in NCr nu/nu mouse at 0.78 to 3.125 mg/kg, ip once daily administered from day 3 to 6 after implantation measured on day 7 by MTT-based hollow-fiber test; details: route intraperitoneal
KB [23] = experiment: Growth inhibition of human KB cells xenografted in NCr nu/nu mouse at 0.78 to 3.125 mg/kg, sc once daily administered from day 3 to 6 after implantation measured on day 7 by MTT-based hollow-fiber test; details: route subcutaneous
LNCaP [24] = experiment: Growth inhibition of human LNCAP cells xenografted in NCr nu/nu mouse at 0.78 to 3.125 mg/kg, ip once daily administered from day 3 to 6 after implantation measured on day 7 by MTT-based hollow-fiber test; details: route intraperitoneal
LNCaP [25] = experiment: Growth inhibition of human LNCAP cells xenografted in NCr nu/nu mouse at 0.78 to 3.125 mg/kg, sc once daily administered from day 3 to 6 after implantation measured on day 7 by MTT-based hollow-fiber test; details: route subcutaneous
KB [26] = experiment: Growth inhibition of human KB cells xenografted in NCr nu/nu mouse at 6.2 to 25 mg/kg, sc once daily administered from day 3 to 6 after implantation measured on day 7 by MTT-based hollow-fiber test; details: route subcutaneous
Lu1 [27] = experiment: Growth inhibition of human Lu1 cells xenografted in NCr nu/nu mouse at 6.2 to 25 mg/kg, sc once daily administered from day 3 to 6 after implantation measured on day 7 by MTT-based hollow-fiber test; details: dose mg/kg 3-6; route subcutaneous
Lu1 [28] = experiment: Growth inhibition of human Lu1 cells xenografted in NCr nu/nu mouse at 6.2 to 25 mg/kg, ip once daily administered from day 3 to 6 after implantation measured on day 7 by MTT-based hollow-fiber test; details: dose mg/kg 3-6; route intraperitoneal
Lu1 [29] = experiment: Growth inhibition of human Lu1 cells xenografted in ip dosed NCr nu/nu mouse administered once daily from day 3 to 6 after implantation measured on day 7 by MTT-based hollow-fiber test
KB [30] = experiment: Growth inhibition of human KB cells xenografted in NCr nu/nu mouse at 6.2 to 25 mg/kg, ip once daily administered from day 3 to 6 after implantation measured on day 7 by MTT-based hollow-fiber test; details: route intraperitoneal
LNCaP [31] = experiment: Growth inhibition of human LNCAP cells xenografted in NCr nu/nu mouse at 6.2 to 25 mg/kg, sc once daily administered from day 3 to 6 after implantation measured on day 7 by MTT-based hollow-fiber test; details: route subcutaneous
LNCaP [32] = experiment: Growth inhibition of human LNCAP cells xenografted in NCr nu/nu mouse at 6.2 to 25 mg/kg, ip once daily administered from day 3 to 6 after implantation measured on day 7 by MTT-based hollow-fiber test; details: route intraperitoneal
SW626 [33] = experiment: Growth inhibition of human SW626 cells xenografted in NCr nu/nu mouse at 3.75 to 30 mg/kg, sc once daily administered from day 3 to 6 after implantation measured on day 7 by MTT-based hollow-fiber test; details: dose mg/kg 3-6; route subcutaneous
KB [34] = experiment: Growth inhibition of human KB cells xenografted in NCr nu/nu mouse at 3.75 to 30 mg/kg, sc once daily administered from day 3 to 6 after implantation measured on day 7 by MTT-based hollow-fiber test; details: route subcutaneous
KB [35] = experiment: Growth inhibition of human KB cells xenografted in NCr nu/nu mouse at 3.75 to 30 mg/kg, ip once daily administered from day 3 to 6 after implantation measured on day 7 by MTT-based hollow-fiber test; details: route intraperitoneal
SW626 [36] = experiment: Growth inhibition of human SW626 cells xenografted in NCr nu/nu mouse at 3.75 to 30 mg/kg, ip once daily administered from day 3 to 6 after implantation measured on day 7 by MTT-based hollow-fiber test; details: dose mg/kg 3-6; route intraperitoneal

Structure (SMILES): CO[C@@]12CC[C@@]3(C)[C@@](CC[C@@H]4[C@@]5(C)CCC[C@]43OC5=O)(C1)C(=O)C2=O
- growth inhibition (GI) (MCF7 [1]): 0%
- growth inhibition (GI) (KB [2]): 6%
- growth inhibition (GI) (SW626 [3]): 16%
- growth inhibition (GI) (SW626 [4]): 0%
- growth inhibition (GI) (MCF7 [5]): 34%
- growth inhibition (GI) (LNCaP [6]): 0%
- growth inhibition (GI) (LNCaP [7]): 50%
- growth inhibition (GI) (SK-MEL-2 [8]): 11%
- ED50 (LNCaP [9]): 1200 nM
- ED50 (SK-MEL-2 [10]): 1200 nM
- growth inhibition (GI) (KB [11]): 21%
- ED50 (SW626 [12]): 580 nM
- ED50 (MCF7 [13]): 870 nM
- growth inhibition (GI) (SK-MEL-2 [14]): 15%

Structure (SMILES): CC(=O)O[C@H]1O[C@H]([C@@H]2c3cccc(O)c3C(=O)c3c(O)cc(C)cc32)[C@H](O)[C@@H](OC(=O)C=C(C)C)[C@H]1O [ALVARADOIN G]
- growth inhibition (GI) (KB [15]): 79%
- growth inhibition (GI) (KB [16]): 13%
- growth inhibition (GI) (Col2 [17]): 0%
- ED50 (LNCaP [9]): 290 nM
- growth inhibition (GI) (Col2 [18]): 84%
- ED50 (Col2 [19]): 1300 nM
- growth inhibition (GI) (LNCaP [20]): 24%
- growth inhibition (GI) (LNCaP [21]): 52%

Structure (SMILES): CC(=O)O[C@@H]1O[C@@H]([C@H]2c3cccc(O)c3C(=O)c3c(O)cc(C)cc32)[C@H](O)[C@@H](OC(=O)C=C(C)C)[C@H]1O [ALVARADOIN H]
- growth inhibition (GI) (KB [22]): 43%
- growth inhibition (GI) (KB [23]): 1%
- growth inhibition (GI) (LNCaP [24]): 47%
- growth inhibition (GI) (LNCaP [25]): 10%
- ED50 (LNCaP [9]): 290 nM

Structure (SMILES): C[C@@H]1CC[C@@]2(OC1)O[C@H]1C[C@H]3[C@@H]4CC=C5C[C@@H](O[C@@H]6O[C@H](CO)[C@@H](O[C@@H]7O[C@@H](C)[C@H](O)[C@@H](O)[C@H]7O)[C@H](O)[C@H]6O[C@@H]6O[C@@H](C)[C@H](O)[C@@H](O)[C@H]6O)CC[C@]5(C)[C@H]4CC[C@]3(C)[C@H]1[C@@H]2C [DIOSCIN]
- growth inhibition (GI) (KB [26]): 4%
- growth inhibition (GI) (Lu1 [27]): 0%
- growth inhibition (GI) (Lu1 [28]): 25%
- ED50 (Lu1 [29]): 1200 nM
- growth inhibition (GI) (KB [30]): 79%
- ED50 (LNCaP [9]): 1700 nM
- growth inhibition (GI) (LNCaP [31]): 36%
- growth inhibition (GI) (LNCaP [32]): 37%

Structure (SMILES): CC(=O)O[C@H]1C(=O)[C@@]2(C)[C@H]([C@H](OC(=O)c3ccccc3)[C@]3(O)C[C@H](OC(=O)[C@H](O)[C@@H](NC(=O)c4ccccc4)c4ccccc4)C(C)=C1C3(C)C)[C@]1(OC(C)=O)CO[C@@H]1C[C@@H]2O [PACLITAXEL]
- growth inhibition (GI) (SW626 [33]): 0%
- growth inhibition (GI) (KB [34]): 20%
- growth inhibition (GI) (KB [35]): 70%
- growth inhibition (GI) (SW626 [36]): 98%
- ED50 (SW626 [12]): 0.012 nM
